From publication PMC2289708 (The Journal of Cell Biology, 1992)
One block for each molecule: values may come before it.

Assays:
[1] = tested on: F-actin in human PMNs; assay: F-actin level in PMNs, rhodamine phalloidin binding; format: cell-based
[2] = format: in vitro ADME, human; conditions: lysed on ice for 5 min before addition of PCA, relative to samples receiving PCA <30 s after lysis; HPLC; not shown
[3] = tested on: G-actin; assay: Non-denaturing PAGE and immunoblot of PMN supernatants for G-actin/TB4 complex; format: binding, human
[4] = biological target: muscle G-actin; assay: TB4 binding to muscle G-actin from rates of pyrenyl actin elongation; parameters: species or system rabbit
[5] = biological target: muscle G-actin; conditions: cited from earlier work
[6] = tested on: platelet actin (cell actin); conditions: ref Weber et al., 1992, cited from earlier work
[7] = ref Safer et al., 1990; cited from earlier work
[8] = tested on: G-actin/TB4 complex in human PMNs; assay: Change in G-actin/TB4 complex band after stimulation of PMNs; format: cell-based; conditions: 10^-7 M FNLLP, 30 s
[9] = biological target: pyrenyl G-actin (Oryctolagus cuniculus, UniProt P68135); format: biochemical, rabbit

Molecule: C=C1[C@@H](C)[C@H]2[C@H](Cc3ccccc3)NC(=O)[C@]23OC(=O)/C=C/[C@H](O)CCC[C@@H](C)C/C=C/[C@H]3[C@@H]1O [cytochalasin B]
effect on chemoattractant induced increase in F-actin ([1]; cytochalasin B with FNLLP, 2 μM in Fig. 3a): blocks the chemoattractant induced in- crease in F-actin

effect of preincubation with TB4 on polymerization rate ([4]; 2 μM pyrenyl G-actin with 5 μM TB4, F-actin nuclei): slower rate of polymerization
time for slope to shift to that of preincubated samples ([4]; 5 μM TB4 added after polymerization started, mixing interval, all n = 7 samples): ≤ 6 s
kon (rate constant of binding), minimal ([4]; bovine spleen TB4 5 μM, 2 μM pyrenyl muscle G-actin, Equation 1, SD 0.003, n = 7): > 45000 M⁻¹ s⁻¹
koff, minimal ([4]; from Kd and minimal kon, muscle actin): greater than 0.09 s-1
Molecule: Thymosin beta 4 [TB4]
TB4 remaining in cell lysate [2]: 95%
PMN band antibody reactivity (actin and TB4) ([3]; immunoblot of band with mobility similar to actin/TB4 complex): reacts positively with antibodies to both actin
fraction of G-actin migrating like G-actin/T beta 4 complex ([3]; supernatants from resting PMNs, 7.5% non-denaturing gels): a large fraction of G-actin in supernatants prepared from resting PMNs has a mobility similar to the G- actin/T beta 4 complex
kinetics of bovine spleen T beta 4 binding to muscle pyrenyl G-actin [4]: sufficiently rapid to accommodate the rapid changes in actin polymerization and depolymerization observed in vivo
Kd ([5]; read-out: Kd for muscle actin (literature), ref Weber et al., 1992): 2 µM
kon (literature) ([5]; ref Goldschmidt-Clermont et al. (1992)): 0.75 s⁻¹
effect of PIPs on binding ([5]; ref Janmey et al., 1992): nor affected by PIPs
binding to pyrene vs unlabeled muscle actin ([5]; ref Weber et al., 1992): binds equally well to pyrene and unlabeled muscle actin
calcium sensitivity of binding ([5]; ref Weber et al., 1992): neither calcium sensitive
Kd ([6]; read-out: Kd for platelet / cell actin): 0.6 µM
affinity for nonmuscle vs muscle actin [6]: approximately threefold higher
activity after boiling [7]: remains active after boiling

F-actin upon stimulation ([1]; 10^-7 M FNLLP, 30 s, n = 6): 200 + 42 % of the amount in resting cel
F-actin increase upon stimulation (Fig. 3a) ([1]; 10^-7 M FNLLP, 30 s, single representative experiment of Fig. 3): 1.5 fold
slope of pyrenyl actin polymerization in stimulated cell supernatant ([9]; Fig. 4, R2 = 0.777, resting supernatant slope 13.6, 10^-7 M FNLLP, 30 s): 6.1 fluorescent U/min
inhibitory activity of boiled supernatants, resting vs stimulated ([9]; boiled supernatants from resting and FNLLP-stimulated cells, not shown): approximately equal inhibitory activity
Molecule: formylnorleucyileucylphenylalanine [FNLLP]
TB4 staining of actin/TB4 band after stimulation, anti-TB4 immunoblot ([8]; 23°C, n = 6): 53 + 9 % of the resting cell level
intensity of G-actin/TB4 band, Coomassie blue ([8]; non-denaturing gel): reduces the intensity of the G-actin/T~4 band
F-actin of stimulated vs resting cells (Fig. 4 experiment) ([1]; 10^-7 M FNLLP, 30 s, not shown): approximately twice
rate of pointed end polymerization in stimulated supernatant (Fig. 4) ([9]; single experiment of Fig. 4, 10^-7 M FNLLP, 30 s): 45 % of the rate in the resting supernatant
